According to ChEMBL document CHEMBL1268831, “Indole alkaloids from Ervatamia hainanensis with potent acetylcholinesterase inhibition activities” (Bioorg Med Chem Lett, 2010):
pIC50: −log10 of the molar value.

Molecular target: Acetylcholinesterase (Electrophorus electricus, UniProt O42275)
Test: Inhibition of electric eel AChE by Ellman's method

Chain of Acetylcholinesterase (O42275 whole entry): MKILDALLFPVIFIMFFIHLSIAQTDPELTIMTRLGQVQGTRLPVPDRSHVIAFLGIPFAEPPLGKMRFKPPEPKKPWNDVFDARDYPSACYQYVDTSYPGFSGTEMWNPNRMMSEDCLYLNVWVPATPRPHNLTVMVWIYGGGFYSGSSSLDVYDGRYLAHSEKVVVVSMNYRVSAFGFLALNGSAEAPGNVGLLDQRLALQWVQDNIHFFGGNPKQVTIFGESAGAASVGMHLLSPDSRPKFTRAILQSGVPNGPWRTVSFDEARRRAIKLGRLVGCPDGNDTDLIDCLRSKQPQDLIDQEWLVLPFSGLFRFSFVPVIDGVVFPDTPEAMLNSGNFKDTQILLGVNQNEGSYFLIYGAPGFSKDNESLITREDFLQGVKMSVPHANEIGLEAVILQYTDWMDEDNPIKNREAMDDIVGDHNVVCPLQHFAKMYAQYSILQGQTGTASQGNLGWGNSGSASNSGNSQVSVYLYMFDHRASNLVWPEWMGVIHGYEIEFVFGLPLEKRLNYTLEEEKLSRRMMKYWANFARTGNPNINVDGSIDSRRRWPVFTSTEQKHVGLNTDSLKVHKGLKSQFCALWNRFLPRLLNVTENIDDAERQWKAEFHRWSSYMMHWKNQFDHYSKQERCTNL

Compound | pIC50
CC[C@H]1C[C@@H]2CN3CCc4c([nH]c5ccc(O)cc45)[C@](C(=O)OC)(C2)[C@H]13 | 4.54
COC(=O)[C@@]12C[C@@H]3C[C@H]([C@@H](C)O)[C@@H]1N(CCc1c2[nH]c2ccc(OC)cc12)C3 [19(R)-HEYNEANINE] | 3.14
CC[C@H]1C[C@@H]2CN3CC[C@]4(O)C(=Nc5ccccc54)[C@](C(=O)OC)(C2)[C@H]13 [CORONARIDINE HYDROXYINDOLENINE] | < 3.00
CC[C@H]1C[C@@H]2CN3CCc4c([nH]c5ccccc45)[C@](C(=O)OC)(C2)[C@H]13 [CORONARIDINE] | 5.07
COC(=O)[C@@]12C[C@@H]3C[C@H]([C@H](C)O)[C@@H]1N(CC[C@]1(O)C2=Nc2ccccc21)C3 [HEYNEANINE HYDROXYINDOLENINE] | < 3.00
CC[C@H]1C[C@@H]2CN3CCc4c([nH]c5ccc(OC)cc45)[C@](C(=O)OC)(C2)[C@H]13 [VOACANGINE] | 5.36
COC(=O)[C@@]12C[C@@H]3C[C@H]([C@H](C)O)[C@@H]1N(CCc1c2[nH]c2ccc(OC)cc12)C3 [VOACRISTINE] | 3.38
C/C=C1/CN(C)[C@H]2Cc3c([nH]c4ccccc34)C(=O)C[C@H]1[C@@H]2C(=O)OC [VOBASINE] | < 3.00
